Data set [1] in a line: Solubility assessment (UHPLC-UV of supernatant, target 10 mg/ml). It counts as physicochemical. The following applies: for solubility at 24 h: read-out: Soluble amount. The method in brief:
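Peptides at 10 mg/ml (purity-corrected) in 100 mM phosphate pH 7.4, optionally with 2.7 mg/ml m-cresol; gentle agitation 1 h, then 5° C. overnight (24 h). Supernatant after 15 min centrifugation at 2500 RCF quantified by UHPLC-UV, with sequence-based extinction coefficients.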

Data set [2] can be described thus: Chemical stability assessment (UHPLC-UV purity loss on storage in solution). It counts as physicochemical. The settings on record: Chemical stability buffer system A: 20 mM phosphate buffer pH 7.4; ~300 μM. The method in brief:
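Peptides dissolved at ~300 μM (purity-corrected) in 20 mM phosphate pH 7.4, or 8 mM phosphate pH 7.4 with 14 mg/ml propylene glycol and 5.5 mg/ml phenol; filtered, stored 28 days at 5 and 40 °C. Supernatant analysed by UHPLC-UV; stability expressed as relative purity loss.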

Data set [3] addresses human GLP-1 receptor (hGLP-1R) (Homo sapiens, UniProt P43220). Put plainly: Binding assay, displacement of [125I]GLP-1 from HEK-293 membranes over-expressing GLP-1R (SPA). The following applies: [125I]GLP-1 displacement. The method, boiled down: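 Membranes from HEK-293 cells over-expressing human GIPR or GLP-1R, isolated by homogenising, sonicating and ultracentrifuging at 100000×g into HEPES/EDTA/NaCl buffer with protease inhibitors, were used for binding.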
For orientation: Loss of bound radioactivity is the signal in a displacement assay; it reports binding, not function.

The target of data set [4] is T1, human GIP receptor (hGIPR) (Homo sapiens, UniProt P48546).
T1 sequence (P48546 22-466): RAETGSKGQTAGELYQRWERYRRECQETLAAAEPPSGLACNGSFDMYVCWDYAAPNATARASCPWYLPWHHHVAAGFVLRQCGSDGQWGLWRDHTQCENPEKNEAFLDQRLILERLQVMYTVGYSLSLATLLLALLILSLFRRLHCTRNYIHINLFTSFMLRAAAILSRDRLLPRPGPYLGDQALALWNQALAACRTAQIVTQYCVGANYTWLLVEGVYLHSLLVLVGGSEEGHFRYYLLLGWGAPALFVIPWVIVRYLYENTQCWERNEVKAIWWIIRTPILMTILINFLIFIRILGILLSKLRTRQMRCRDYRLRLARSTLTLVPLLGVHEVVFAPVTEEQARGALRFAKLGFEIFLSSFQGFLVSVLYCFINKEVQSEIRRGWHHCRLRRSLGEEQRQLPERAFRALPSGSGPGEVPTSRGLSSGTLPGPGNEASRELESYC
Put plainly: In vitro cellular cAMP assay for GIP receptor efficacy (HEK-293 cell line over-expressing receptor). It counts as cell-based. A general note: Cyclic AMP is a second messenger, typically raised through Gs and lowered through Gi signalling.

Data set [5] can be described thus: ThT assay for the assessment of physical stability (fibrillation). The class given is physicochemical. The settings on record: ThT buffer system A: 100 mM phosphate buffer pH 7.4; 3 mg/ml, 37° C., shaking. The method in brief: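 Peptide at 3 mg/ml in 100 mM phosphate buffer pH 7.4 with 100 μM ThT, stressed at 37° C. by cycles of 10 sec shaking at 960 rpm and 50 sec rest. Fluorescence read every 20 min, eight replicates; lag time (h) to fibril onset derived from sigmoidal kinetics.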

Where [6] appears, read: EC50 hGIPR 0.1% BSA, HEK-293, 0.1% BSA.

This is an account of results in US20240360194A1, “New Peptides as Potent and Selective GIP Receptor Agonists” (Sanofi, priority 2021, published 2024).

Values after ≈ are worked out from the molar mass of the structure shown. Like-named read-outs stand apart in the source and are kept apart here.

Sequence of human GLP-1 receptor (hGLP-1R) (P43220 24-463): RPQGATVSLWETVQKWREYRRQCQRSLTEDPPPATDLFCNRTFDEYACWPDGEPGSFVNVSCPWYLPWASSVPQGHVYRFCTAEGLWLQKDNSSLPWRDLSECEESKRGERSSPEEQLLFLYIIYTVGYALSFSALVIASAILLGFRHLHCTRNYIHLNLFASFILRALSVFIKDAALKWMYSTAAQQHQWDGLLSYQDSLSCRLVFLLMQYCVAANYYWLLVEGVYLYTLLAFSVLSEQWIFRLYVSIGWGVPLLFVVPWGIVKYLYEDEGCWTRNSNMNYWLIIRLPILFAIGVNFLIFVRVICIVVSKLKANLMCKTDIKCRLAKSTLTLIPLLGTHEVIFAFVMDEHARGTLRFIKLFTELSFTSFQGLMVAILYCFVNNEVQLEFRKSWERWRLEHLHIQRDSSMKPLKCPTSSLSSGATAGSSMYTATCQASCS

In general, IC50 refers to the midpoint of a concentration-inhibition curve. Read a high IC50 as weaker potency in that assay. For orientation: EC50 means the concentration needed to bring the measured effect to its halfway point. A low value points to a more potent agent. In turn, `CC[C@H](C)[C@H](NC(=O)[C@H](Cc1ccccc1)NC(=O)[C@H](CCC(=O)O)NC(=O)[C@H](CCC(=O)O)NC(=O)[C@H](CCC(N)=O)NC(=O)[C@H](Cc1c[nH]cn1)NC(=O)[C@@H](NC(=O)[C@H](CCCNC(=N)N)NC(=O)[C@H](CC(=O)O)NC(=O)[C@H](CCCCNC(=O)COCCOCCNC(=O)COCCOCCNC(=O)CC[C@H](NC(=O)CCCCCCCCCCCCCCCCC(=O)O)C(=O)O)NC(=O)C(C)(C)NC(=O)[C@@H](NC(=O)[C@H](CO)NC(=O)[C@H](CC(C)C)NC(=O)[C@H](CC(=O)O)NC(=O)[C@H](CO)NC(=O)[C@@H](NC(=O)[C@@](C)(CC)NC(=O)[C@@H](NC(=O)CNC(=O)[C@H](CCC(=O)O)NC(=O)C(C)(C)NC(=O)[C@@H](N)Cc1ccc(O)cc1)[C@@H](C)O)[C@@H](C)CC)[C@@H](C)CC)[C@@H](C)CC)C(=O)N[C@@H](CCC(=O)O)C(=O)N[C@@H](Cc1c[nH]c2ccccc12)C(=O)N[C@@H](CC(C)C)C(=O)N[C@@H](CC(C)C)C(=O)N[C@@H](C)C(=O)N[C@@H](CCC(N)=O)C(=O)N[C@@H](CCCNC(=N)N)C(=O)NCC(N)=O` [SEQ ID NO: 15, H2N-Y-Aib-E-G-T-Iva-I-S-D-L-S-I-Aib-K[{AEEA}2-gGlu-C18OH]-D-R-I-H-Q-E-E-F-I-E-W-L-L-A-Q-R-G-NH2] showed a Soluble amount in data set [1] (pH 7.4) of 8.5 mg/mL. The compound also came in with a solubility in data set [1] (pH 7.4, Soluble amount) of over 9500 µg/mL. Further, the “Relative purity loss over 28 days at 40° C.” value in data set [2] worked out at 6.5%. The same compound came in with an IC50 in data set [3] of 495 nM. Moreover, the EC50 in data set [4] (setting [6]) was found to be 0.0216 nM. Further, in data set [5], the “Increase in FI” value is reported as “no” and the “Lag time before increase” value is over 45 h.
As for `CC[C@H](C)[C@H](NC(=O)[C@H](CCCNC(=N)N)NC(=O)[C@H](CC(=O)O)NC(=O)[C@H](CCCCNC(=O)COCCOCCNC(=O)COCCOCCNC(=O)CC[C@H](NC(=O)CCCCCCCCCCCCCCCCC(=O)O)C(=O)O)NC(=O)C(C)(C)NC(=O)[C@@H](NC(=O)[C@H](CO)NC(=O)[C@H](CC(C)C)NC(=O)[C@H](CC(=O)O)NC(=O)[C@H](CO)NC(=O)[C@@H](NC(=O)[C@H](Cc1ccccc1)NC(=O)[C@@H](NC(=O)CNC(=O)[C@H](CCC(=O)O)NC(=O)C(C)(C)NC(=O)[C@@H](N)Cc1ccc(O)cc1)[C@@H](C)O)[C@@H](C)CC)[C@@H](C)CC)C(=O)N[C@@H](Cc1c[nH]cn1)C(=O)N[C@@H](CCC(N)=O)C(=O)NC(C)(C)C(=O)N[C@@H](CCC(=O)O)C(=O)N[C@@H](Cc1ccccc1)C(=O)N[C@H](C(=O)N[C@@H](CCC(=O)O)C(=O)N[C@@H](Cc1c[nH]c2ccccc12)C(=O)N[C@@H](CC(C)C)C(=O)N[C@@H](CC(C)C)C(=O)N[C@@H](C)C(=O)N[C@@H](CCC(N)=O)C(=O)N[C@@H](CCC(=O)O)C(=O)NCC(N)=O)[C@@H](C)CC` [SEQ ID NO: 12, H2N-Y-Aib-E-G-T-F-I-S-D-L-S-I-Aib-K[{AEEA}2-gGlu-C18OH]-D-R-I-H-Q-Aib-E-F-I-E-W-L-L-A-Q-E-G-NH2], the solubility at 24 h in data set [1] (100 mM phosphate buffer pH 7.4 (solubility buffer system A), pH 7.4, Solubility buffer system A: 100 mM phosphate buffer pH 7.4) was over 9500 µg/mL; in data set [1] (pH 7.4, Solubility buffer system C: 100 mM phosphate buffer pH 7.4, 2.7 mg/ml m-cresol) it was 7600 µg/mL (≈ 1760 µM). Further, the “Relative purity loss over 28 days at 40° C.” value in data set [2] is recorded as 7.4%. Besides, in data set [3], the IC50 was 133 nM. Moreover, the EC50 in data set [4] (setting [6]) came out at 0.0267 nM; in data set [4] (EC50 hGIPR 0.1% HSA, HEK-293, 0.1% HSA), 0.0011 nM. For the same compound, the “Increase in FI” value in data set [5] is listed as “no”. In addition, the “Lag time before increase” value in data set [5] was over 45 h.
